According to ChEMBL document CHEMBL1201862, “PubChem BioAssay data set” (2004):
Active and inactive are the calls of the source.

Assays:
[1] = LMP1-induced NF-kB luciferase signal inhibition – cell-based, EBV LMP1, dry powder, set 2, dose response (AID 624361); assay type: functional
[2] = target: NAD-dependent protein deacylase sirtuin-5, mitochondrial (Homo sapiens, UniProt Q9NXA8); experiment: blockers of sirtuin-5 peptide desuccinylation – biochemical, fluorescence imaging, cherry-pick, set 6, dose response (AID 720597)
Genome polyprotein = Genome polyprotein (Hepatitis C virus, UniProt Q2Q167); experiment: disruption of hepatitis C core self-association – biochemical, TR-FRET, dose response (AID 2159); parameters: species or system Hepacivirus hominis;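 further: blocks dimerization of HCV core protein measured by TR-FRET between tagged core106 pairs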
Leucine aminopeptidase = target: T1, Leucine aminopeptidase (Plasmodium falciparum 3D7, UniProt Q8IL11); experiment: P. falciparum M17LAP inhibitors, primary screen, biochemical, fluorogenic H-Leu-NHMec substrate, 1536-well (AID 1619); assay type: functional
T1 sequence (Q8IL11 whole entry): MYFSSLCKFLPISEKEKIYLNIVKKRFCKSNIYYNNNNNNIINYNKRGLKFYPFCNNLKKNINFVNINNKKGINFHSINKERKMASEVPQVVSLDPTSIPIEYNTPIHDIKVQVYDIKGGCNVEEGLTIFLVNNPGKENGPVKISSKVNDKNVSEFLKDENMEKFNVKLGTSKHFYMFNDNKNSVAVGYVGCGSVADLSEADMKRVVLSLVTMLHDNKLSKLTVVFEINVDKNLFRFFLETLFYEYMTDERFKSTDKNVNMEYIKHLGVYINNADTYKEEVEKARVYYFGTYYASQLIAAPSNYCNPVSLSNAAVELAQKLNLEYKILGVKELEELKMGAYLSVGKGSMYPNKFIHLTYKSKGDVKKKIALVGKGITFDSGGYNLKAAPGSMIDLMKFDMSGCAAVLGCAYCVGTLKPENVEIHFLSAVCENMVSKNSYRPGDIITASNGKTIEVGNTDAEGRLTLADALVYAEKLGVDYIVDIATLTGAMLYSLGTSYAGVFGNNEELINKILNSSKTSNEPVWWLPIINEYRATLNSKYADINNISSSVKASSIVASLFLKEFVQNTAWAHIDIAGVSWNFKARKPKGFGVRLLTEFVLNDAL

BJ [3] = experiment: BJ-TERT fibroblast viability loss – cell-based, RAS-independent, luminescence, dose response (AID 1933); assay type: functional; conditions: Homo sapiens
BJ [4] = experiment: cells; assay type: functional, cell-based; conditions: Homo sapiens
BJ [5] = experiment: BJ-TERT-LT-ST fibroblast viability loss – cell-based, RAS-independent, luminescence, dose response (AID 1935); assay type: functional; conditions: Homo sapiens;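 further: BJ fibroblasts immortalized with TERT plus LT and ST oncogenes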
[6] = DRD fibroblast viability loss – cell-based, non-viral oncogenic, luminescence, dose response (AID 1934); assay type: functional; conditions: Homo sapiens
Galanin receptor type 3 = target: T2, Galanin receptor type 3 (Homo sapiens, UniProt O60755); experiment: Fluorescence-based cell-based primary high throughput dose response assay to identify antagonists of the Galanin Receptor 3 (GalR3).; assay type: functional
T2 sequence (O60755 whole entry): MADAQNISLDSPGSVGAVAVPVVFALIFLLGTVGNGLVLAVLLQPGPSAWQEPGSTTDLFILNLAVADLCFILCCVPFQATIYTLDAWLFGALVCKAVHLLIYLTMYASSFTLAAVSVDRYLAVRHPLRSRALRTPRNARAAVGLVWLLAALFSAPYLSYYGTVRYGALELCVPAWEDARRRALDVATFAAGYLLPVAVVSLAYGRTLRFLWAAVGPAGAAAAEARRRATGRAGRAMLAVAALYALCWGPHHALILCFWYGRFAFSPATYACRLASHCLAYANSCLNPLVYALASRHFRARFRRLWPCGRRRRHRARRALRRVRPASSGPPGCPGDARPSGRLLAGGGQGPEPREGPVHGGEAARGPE

cells [7] = assay type: functional, cell-based; conditions: HEK-CNG
[8] = viability loss in HepG2 liver cells – cell-based, ATP luminescence, cherry-pick, set 6, cytotoxicity control, dose response (AID 1053125); assay type: functional
cells [9] = conditions: A549
cells [10] = conditions: HEK293
[11] = target: T3, Methionyl-tRNA synthetase, putative (Trypanosoma brucei brucei, UniProt Q38C91); assay type: functional, Trypanosoma brucei brucei strain 927/4 GUTat10.1
T3 sequence (Q38C91 whole entry): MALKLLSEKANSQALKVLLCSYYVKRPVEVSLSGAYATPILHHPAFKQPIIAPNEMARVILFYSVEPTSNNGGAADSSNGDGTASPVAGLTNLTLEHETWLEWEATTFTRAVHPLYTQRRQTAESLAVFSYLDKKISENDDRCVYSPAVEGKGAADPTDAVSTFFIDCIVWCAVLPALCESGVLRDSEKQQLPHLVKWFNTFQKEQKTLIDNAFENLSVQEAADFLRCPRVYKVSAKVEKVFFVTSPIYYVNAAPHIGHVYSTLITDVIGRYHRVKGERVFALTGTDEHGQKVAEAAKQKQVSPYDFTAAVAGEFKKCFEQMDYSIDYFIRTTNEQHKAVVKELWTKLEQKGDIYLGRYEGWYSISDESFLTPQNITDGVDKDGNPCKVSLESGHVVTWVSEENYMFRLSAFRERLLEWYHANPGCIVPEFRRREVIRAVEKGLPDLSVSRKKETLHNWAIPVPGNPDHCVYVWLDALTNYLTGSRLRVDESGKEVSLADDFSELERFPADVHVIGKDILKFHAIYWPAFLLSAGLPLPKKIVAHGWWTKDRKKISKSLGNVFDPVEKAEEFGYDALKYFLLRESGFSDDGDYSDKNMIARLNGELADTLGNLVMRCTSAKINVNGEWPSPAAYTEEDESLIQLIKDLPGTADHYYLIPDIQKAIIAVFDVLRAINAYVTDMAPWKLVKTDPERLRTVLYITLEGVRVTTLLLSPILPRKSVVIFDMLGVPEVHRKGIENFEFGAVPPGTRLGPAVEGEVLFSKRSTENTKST

[12] = Counterscreen for inhibitors of Trypanosoma brucei methionyl tRNA synthetase (MetRS): Luminescence-based cell-based high throughput dose response assay to identify compounds that are cytotoxic to Jurkat human T lymphocyte cells.; assay type: functional
[13] = target: T3, Methionyl-tRNA synthetase, putative; assay type: functional, Trypanosoma brucei brucei strain 927/4 GUTat10.1; remark: listed apart in the source
[14] = Late stage counterscreen for inhibitors of Trypanosoma brucei methionyl tRNA synthetase (MetRS): Luminescence-based cell-based high throughput dose response assay to identify compounds that are cytotoxic to Jurkat human T lymphocyte cells.; assay type: functional
[15] = target: E3 ubiquitin-protein ligase UHRF1 (Homo sapiens, UniProt Q96T88); experiment: Counterscreen for inhibitors of 5-meCpG-binding domain protein 2 (MBD2): TRFRET-based biochemical high throughput dose response assay to identify inhibitors of binding of ubiquitin-like with PHD and ring finger domains 1 (UHRF1) to methylated oligonucleotide.
Kallikrein-7 = Kallikrein-7 (Homo sapiens, UniProt P49862); experiment: Fluorescence Intensity-based biochemical primary high throughput dose response assay to identify activators of kallikrein-7 (K7) zymogen.
[16] = HepG2 hepatoma cell viability loss – plate reader, dry powder, cytotoxicity control, dose response (AID 651947); assay type: functional, cell-based
[17] = viability loss in HEK293T cells – cell-based, CellTiter-Glo luminescence, dry powder, set 6, cytotoxicity control, dose response (AID 651949); assay type: functional; conditions: HEK293

E3 ubiquitin-protein ligase UHRF1, sequence (Q96T88 whole entry, the tested form may be a part): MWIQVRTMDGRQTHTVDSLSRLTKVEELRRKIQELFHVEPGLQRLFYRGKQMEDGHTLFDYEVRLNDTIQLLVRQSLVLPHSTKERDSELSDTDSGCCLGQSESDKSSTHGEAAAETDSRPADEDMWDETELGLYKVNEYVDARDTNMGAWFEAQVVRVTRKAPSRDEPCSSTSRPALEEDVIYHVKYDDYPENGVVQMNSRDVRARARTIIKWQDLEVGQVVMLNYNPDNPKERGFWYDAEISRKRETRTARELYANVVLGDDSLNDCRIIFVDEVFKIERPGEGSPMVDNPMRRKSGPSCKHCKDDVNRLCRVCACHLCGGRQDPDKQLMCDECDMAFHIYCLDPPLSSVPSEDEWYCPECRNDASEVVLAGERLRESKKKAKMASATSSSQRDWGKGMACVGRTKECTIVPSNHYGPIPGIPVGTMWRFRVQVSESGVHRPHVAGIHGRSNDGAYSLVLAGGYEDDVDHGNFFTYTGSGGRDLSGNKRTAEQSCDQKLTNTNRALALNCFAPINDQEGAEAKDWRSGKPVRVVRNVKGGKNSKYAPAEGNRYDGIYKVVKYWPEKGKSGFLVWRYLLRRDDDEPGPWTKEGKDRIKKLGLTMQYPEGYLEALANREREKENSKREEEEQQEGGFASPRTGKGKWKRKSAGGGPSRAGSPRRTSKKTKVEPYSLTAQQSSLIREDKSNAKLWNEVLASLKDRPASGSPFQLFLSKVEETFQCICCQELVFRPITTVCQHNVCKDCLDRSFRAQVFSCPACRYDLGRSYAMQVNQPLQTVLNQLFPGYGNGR
NAD-dependent protein deacylase sirtuin-5, mitochondrial, sequence (Q9NXA8 whole entry): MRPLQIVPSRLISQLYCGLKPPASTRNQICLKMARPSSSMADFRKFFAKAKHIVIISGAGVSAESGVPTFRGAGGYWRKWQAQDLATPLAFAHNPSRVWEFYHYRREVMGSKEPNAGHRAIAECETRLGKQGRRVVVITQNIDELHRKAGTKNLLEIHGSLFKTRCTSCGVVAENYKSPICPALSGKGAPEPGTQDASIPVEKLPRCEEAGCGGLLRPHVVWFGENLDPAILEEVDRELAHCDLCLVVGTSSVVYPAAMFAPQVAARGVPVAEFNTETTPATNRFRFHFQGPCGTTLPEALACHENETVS
Genome polyprotein, sequence (Q2Q167 whole entry): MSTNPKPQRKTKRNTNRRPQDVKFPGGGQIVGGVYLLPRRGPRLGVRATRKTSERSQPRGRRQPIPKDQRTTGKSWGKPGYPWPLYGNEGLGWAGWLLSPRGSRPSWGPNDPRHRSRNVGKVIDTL
Kallikrein-7, sequence (P49862 whole entry): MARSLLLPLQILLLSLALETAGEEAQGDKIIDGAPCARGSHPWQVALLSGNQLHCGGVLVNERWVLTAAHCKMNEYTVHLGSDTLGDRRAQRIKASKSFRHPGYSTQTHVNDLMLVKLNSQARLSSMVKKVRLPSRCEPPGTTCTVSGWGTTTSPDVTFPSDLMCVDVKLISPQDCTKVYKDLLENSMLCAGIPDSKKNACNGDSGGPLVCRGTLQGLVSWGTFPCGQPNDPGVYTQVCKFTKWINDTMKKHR

Cc1noc(C)c1S(=O)(=O)Nc1ccc2c(c1)C(=O)N([C@@H](C)CO)C[C@@H](C)[C@@H](CN(C)Cc1ccc(C(F)(F)F)cc1)OCCCC[C@@H](C)O2
AbsAC35 [1]: 38.34 µM
AC50 [2]: > 15 µM (inactive)

COc1ccc(C(=O)NC(=S)Nc2ccc3[nH]c(=O)[nH]c3c2)c(OC)c1
IC50 (Genome polyprotein): > 49.8 µM (not active)

COc1ccc(N2C(C)=CC(=Cc3sc4ccccc4[n+]3C)C=C2C)cc1
IC50 (Leucine aminopeptidase): 60.3 µM (active)
EC50 (BJ [3]): 0.359 µM (inconclusive)
EC50 (BJ [4]): 1.38 µM (active)
EC50 (BJ [5]): 4 µM (inconclusive)
EC50 [6]: 2.06 µM (inconclusive)
IC50 (Galanin receptor type 3): 0.246 µM (active)
EC50 (cells [7]): > 29.9 µM (inactive)
AC50 [8]: 14.3 µM (active)
AC50 (cells [9]): 0.315 µM (active)
AC50 (cells [10]): 3.36 µM (active)

CCO[C@H]1OC(C(=O)NCc2nc3ccccc3[nH]2)=C[C@@H](c2ccc(Br)cc2)[C@@H]1CCCO
IC50 [11]: 8.41 µM (active)
IC50 [12]: 83.3 µM (inactive)
IC50 [13]: 5.73 µM (active)
IC50 [14]: 57 µM (inactive)

CC(=O)Nc1sc2c(c1-c1nc3ccccc3s1)CCN(C(C)C)CC2
IC50 [15]: 16.9 µM (inactive)

Cc1ccc2nc(NCC(=O)O)nc(-c3ccccc3)c2c1
EC50 (Kallikrein-7): 14.5 µM (inactive)

[O-][S+](Cc1cn(Cc2ccc(F)cc2)nn1)c1nnc(-c2ccc(Cl)cc2)o1 (stereo unspecified)
AC50 [16]: 15.1 µM (active)
AC50 [17]: 17.2 µM (active)
